Earlier results in article PMC8435859 (Frontiers in Cellular and Infection Microbiology, 2021).
Values after ≈ are worked out from the molar mass of the structure shown. Where a name gives a salt, the structure may show the parent alone.

Columns and labels:
GABA uptake = tested on: GABA uptake; set-up: method as in Johnston G A R et al., Nature; conditions: ref Johnston G A R et al., Nature; read-out: IC50, inhibition of GABA uptake; cited from earlier work
CYP2B6 = tested on: CYP2B6; set-up: method as in ref Cheng SenSung et al., Journal of Agricultural & Food Chemistry, 2012, 60(1):124-8; conditions: ref Cheng SenSung et al., Journal of Agricultural & Food Chemistry, 2012, 60(1):124-8; read-out: Ki, CYP2B6 inhibition; cited from earlier work
CYP3A4 = tested on: CYP3A4; set-up: method as in ref Cheng SenSung et al., Journal of Agricultural & Food Chemistry, 2012, 60(1):124-8; conditions: ref Cheng SenSung et al., Journal of Agricultural & Food Chemistry, 2012, 60(1):124-8; read-out: Ki, CYP3A4 inhibition; cited from earlier work
MDA-MB-231 = tested on: MDA-MB-231; set-up: method as in ref Sales SM et al., Biomedicine & Pharmacotherapy, 2018, 103:1577-1584; conditions: one value printed for MCF-7 & MDA-MB-231; ref Sales SM et al., Biomedicine & Pharmacotherapy, 2018, 103:1577-1584; read-out: IC50, decreased MDA-MB-231 survival; cited from earlier work
MCF-7 = tested on: MCF-7; set-up: method as in ref Sales SM et al., Biomedicine & Pharmacotherapy, 2018, 103:1577-1584; conditions: one value printed for MCF-7 & MDA-MB-231; ref Sales SM et al., Biomedicine & Pharmacotherapy, 2018, 103:1577-1584; read-out: IC50, decreased MCF-7 survival; cited from earlier work
H. pylori = tested on: H. pylori; set-up: method as in ref Sales SM et al., Biomedicine & Pharmacotherapy, 2018, 103:1577-1584; conditions: ref Sales SM et al., Biomedicine & Pharmacotherapy, 2018, 103:1577-1584; cited from earlier work
EV71 = conditions: ref Choi HJ et al., Biomol Ther (Seoul). 2016 Sep 1;24(5):552-8; cited from earlier work

## O=C(O)C1=CCCNC1 [Guvacine hydrochloride]
GABA uptake
  IC50: 10 µM

## C[C@@H]1CC[C@H]2C(C)(C)[C@H]3C[C@@]12CC[C@@]3(C)O [Cedrol]
CYP2B6
  Ki: 0.9 µM
CYP3A4
  Ki: 3.4 µM

## CCCCCCCCOC(=O)c1cc(O)c(O)c(O)c1 [Octyl gallate]
MDA-MB-231
  IC50: 40 µM
MCF-7
  IC50: 40 µM
H. pylori
  minimum inhibitory concentration (MIC) against H. pylori: 125 µg/mL (≈ 443 µM)

## O=c1cc(-c2ccccc2)oc2c(O)c(O)cc(O)c12 [Norwogonin]
EV71
  IC50, antiviral activity against Enterovirus 71: Norwogonin, isolated from Scutellaria baicalensis Georgi, possesses antiviral activity against Enterovirus 71 (IC50: 31.83 μg/ml).
